Measurements published in the supplement of paper PMC8671470.

Legend:
Conditions in all cases: 72 h
[1] = tested on: myeloid leukemia patient primary cells Pat.4; assay: area under dose-response curve (viability, 1 nM-10 uM) (fraction (0-1)); higher = more sensitive
Experimental: (§1)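 AUC (0–1, higher = more sensitive) of the 5-point dose–response (1 nM–10 µM, 72 h, CellTiter-Glo) in primary AML/CML patient mononuclear cells. 0.030103 is the floor for inactive compounds.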

[2] = tested on: myeloid leukemia patient primary cells Pat.7; assay: as above
Experimental: as §1

[3] = tested on: myeloid leukemia patient primary cells Pat.15; assay: as above
Experimental: as §1

[4] = tested on: myeloid leukemia patient primary cells Pat.11; assay: as above
Experimental: as §1

[5] = tested on: myeloid leukemia patient primary cells Pat.1; assay: as above
Experimental: as §1

[6] = tested on: myeloid leukemia patient primary cells Pat.3; assay: as above
Experimental: as §1

[7] = tested on: myeloid leukemia patient primary cells Pat.8; assay: as above
Experimental: as §1

[8] = tested on: myeloid leukemia patient primary cells Pat.12; assay: as above
Experimental: as §1

[9] = tested on: myeloid leukemia patient primary cells Pat.2; assay: as above
Experimental: as §1

[10] = tested on: myeloid leukemia patient primary cells Pat.13; assay: as above
Experimental: as §1

[11] = tested on: myeloid leukemia patient primary cells Pat.10; assay: as above
Experimental: as §1

[12] = tested on: myeloid leukemia patient primary cells Pat.6; assay: as above
Experimental: as §1

[13] = tested on: myeloid leukemia patient primary cells Pat.9; assay: as above
Experimental: as §1

[14] = tested on: myeloid leukemia patient primary cells Pat.14; assay: as above
Experimental: as §1

[15] = tested on: myeloid leukemia patient primary cells Pat.5; assay: as above
Experimental: as §1

[16] = tested on: ML-2
Procedure, shortened: (§2)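 In 384-well plates holding acoustically pre-printed compounds at five tenfold doses from 1 to 10,000 nM, in duplicate, fifteen myeloid leukaemia cell lines were grown in RPMI 1640 for 72 h at 37 °C with 5% CO2. Luminescent ATP viability was scaled between vehicle and a positive control at 10 µM. The IC50 was then taken from log-logistic dose–response fits with four parameters.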

[17] = tested on: LAMA-84
Procedure, shortened: as §2

[18] = tested on: K-562
Procedure, shortened: as §2

[19] = tested on: Mono-Mac-6
Procedure, shortened: as §2

[20] = tested on: KU-812
Procedure, shortened: as §2

[21] = tested on: KG-1
Procedure, shortened: as §2

[22] = tested on: THP-1
Procedure, shortened: as §2

[23] = tested on: SHI-1
Procedure, shortened: as §2

[24] = tested on: BV-173
Procedure, shortened: as §2

[25] = tested on: HL-60
Procedure, shortened: as §2

[26] = tested on: HEL
Procedure, shortened: as §2

[27] = tested on: MV4-11
Procedure, shortened: as §2

[28] = tested on: MOLM-13
Procedure, shortened: as §2

[29] = tested on: NOMO-1
Procedure, shortened: as §2

[30] = tested on: myeloid leukemia patient primary cells Pat.7; assay: cell viability (% survival relative to DMSO control); higher = less cytotoxic
Procedure, shortened: (§3)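 Mononuclear cells from patients with AML or CML were thawed, purified on Ficoll and placed in RPMI 1640 with 10% FBS at 10,000 cells/well on 384-well plates. The plates came pre-printed with 70 compounds at five tenfold concentrations spanning 1–10,000 nM, in duplicate, and cells were exposed for 72 h. CellTiter-Glo gave viability, scaled between DMSO wells and wells with 10 μM proteasome inhibitor. Where reported, area under the curve was obtained from log-logistic fits with four parameters using the drc and PharmacoGx R packages.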

[31] = tested on: myeloid leukemia patient primary cells Pat.8; assay: as above
Procedure, shortened: as §3

[32] = tested on: myeloid leukemia patient primary cells Pat.12; assay: as above
Procedure, shortened: as §3

[33] = tested on: myeloid leukemia patient primary cells Pat.2; assay: as above
Procedure, shortened: as §3

[34] = tested on: myeloid leukemia patient primary cells Pat.6; assay: as above
Procedure, shortened: as §3

[35] = tested on: myeloid leukemia patient primary cells Pat.14; assay: as above
Procedure, shortened: as §3

[36] = tested on: myeloid leukemia patient primary cells Pat.5; assay: as above
Procedure, shortened: as §3

O=C(O)C1=CC(=C(c2ccc(O)c(C(=O)O)c2)c2ccc(O)c(C(=O)O)c2)C=CC1=O [Aurintricarboxylic acid]
Conditions | IC50 (cell viability) [µM] | area under dose-response curve
[1] | – | < 0.0301
[2] | – | < 0.0301
[3] | – | < 0.0301
[4] | – | < 0.0301
[5] | – | < 0.0301
[6] | – | 0.0466
[7] | – | < 0.0301
[8] | – | < 0.0301
[9] | – | < 0.0301
[10] | – | < 0.0301
[11] | – | < 0.0301
[12] | – | < 0.0301
[13] | – | < 0.0301
[14] | – | < 0.0301
[15] | – | < 0.0301
[16] | > 10 | –
[17] | > 10 | –
[18] | > 10 | –
[19] | > 10 | –
[20] | > 10 | –
[21] | > 10 | –
[22] | > 10 | –
[23] | > 10 | –
[24] | 2.72 | –
[25] | > 10 | –
[26] | 3.3 | –
[27] | > 10 | –
[28] | 2.64 | –
[29] | > 10 | –

cell viability [%]
Conditions | [30] | [31] | [32] | [33] | [34] | [35] | [36]
1 nM | 87.2 | 92.5 | 96.5 | 98 | 99.8 | 92.5 | > 100
10 nM | 94.1 | 87.6 | 97.4 | 99.7 | 97.5 | > 100 | 88.3
100 nM | > 100 | 79.7 | 99.8 | 97.8 | > 100 | 98.6 | 91.7
1000 nM | > 100 | 94.2 | > 100 | > 100 | > 100 | > 100 | > 100
10000 nM | 70.9 | 79.4 | 99.6 | 98.8 | 97.7 | 92.1 | > 100

N#CC(C#N)=NNc1ccc(OC(F)(F)F)cc1 [FCCP]
Conditions | IC50 (cell viability) [µM] | area under dose-response curve
[1] | – | 0.229
[2] | – | 0.366
[3] | – | 0.159
[4] | – | 0.158
[5] | – | 0.214
[6] | – | 0.361
[7] | – | 0.116
[8] | – | 0.0898
[9] | – | 0.0623
[10] | – | 0.211
[11] | – | 0.466
[12] | – | 0.175
[13] | – | 0.361
[14] | – | 0.316
[15] | – | 0.825
[16] | 2.09 | –
[17] | 2.01 | –
[18] | 1.73 | –
[19] | 2.38 | –
[20] | 1.39 | –
[21] | 2.34 | –
[22] | 3.77 | –
[23] | 4.02 | –
[24] | 2.05 | –
[25] | 2.66 | –
[26] | 1.96 | –
[27] | 2.44 | –
[28] | 2.11 | –
[29] | 3.01 | –

cell viability [%]
Conditions | [30] | [31] | [32] | [33] | [34] | [35] | [36]
1 nM | 82.8 | 71.4 | > 100 | 92.5 | 87 | 67.3 | 19.1
10 nM | 82.5 | 91.6 | 93.3 | 90.8 | 97.4 | 93.7 | 52.4
100 nM | 93.6 | 82.1 | 99.7 | > 100 | 88.8 | 94.6 | 14.8
1000 nM | < 0 | 89.1 | 89.5 | 95.3 | 65.5 | 17.4 | < 0
10000 nM | < 0 | 3.73 | 36.1 | 30 | 20 | 0.937 | 3.45

C[C@H](NC(=O)c1sccc1OCc1ccc(Cl)cc1)c1ccccc1
Conditions | IC50 (cell viability) [µM] | area under dose-response curve
[1] | – | 0.0955
[2] | – | 0.253
[3] | – | < 0.0301
[4] | – | < 0.0301
[5] | – | 0.0329
[6] | – | 0.124
[7] | – | < 0.0301
[8] | – | < 0.0301
[9] | – | 0.0349
[10] | – | 0.0406
[11] | – | 0.13
[12] | – | 0.0893
[13] | – | 0.195
[14] | – | 0.121
[15] | – | 0.338
[16] | > 10 | –
[17] | > 10 | –
[18] | > 10 | –
[19] | > 10 | –
[20] | > 10 | –
[21] | > 10 | –
[22] | > 10 | –
[23] | > 10 | –
[24] | > 10 | –
[25] | 0.751 | –
[26] | > 10 | –
[27] | > 10 | –
[28] | > 10 | –
[29] | > 10 | –

cell viability [%]
Conditions | [30] | [31] | [32] | [33] | [34] | [35] | [36]
1 nM | 93.1 | 72.9 | 90 | > 100 | > 100 | 88.5 | 88.1
10 nM | 85.3 | 85.9 | 98.4 | 95.8 | 98.1 | 88 | 68.7
100 nM | 90.3 | 87.7 | 91.8 | > 100 | 99.6 | 99.3 | 71.7
1000 nM | 40.2 | > 100 | > 100 | 97.8 | 91.5 | 99.3 | 19.4
10000 nM | < 0 | 61 | 63.8 | 64 | 35.7 | 1.72 | 4.74

O=C(O)Cn1nnc(-c2cc(N3CCC(Oc4cc(F)ccc4Br)CC3)no2)n1 [MK-8245]
Conditions | IC50 (cell viability) [µM] | area under dose-response curve
[1] | – | < 0.0301
[2] | – | < 0.0301
[3] | – | < 0.0301
[4] | – | < 0.0301
[5] | – | < 0.0301
[6] | – | 0.0756
[7] | – | < 0.0301
[8] | – | < 0.0301
[9] | – | < 0.0301
[10] | – | < 0.0301
[11] | – | 0.205
[12] | – | < 0.0301
[13] | – | < 0.0301
[14] | – | < 0.0301
[15] | – | 0.0448
[16] | > 10 | –
[17] | > 10 | –
[18] | 6.81 | –
[19] | > 10 | –
[20] | > 10 | –
[21] | > 10 | –
[22] | > 10 | –
[23] | > 10 | –
[24] | > 10 | –
[25] | > 10 | –
[26] | > 10 | –
[27] | > 10 | –
[28] | 0.643 | –
[29] | > 10 | –

cell viability [%]
Conditions | [30] | [31] | [32] | [33] | [34] | [35] | [36]
1 nM | 97.4 | > 100 | > 100 | > 100 | 97.8 | 95.5 | > 100
10 nM | 93.6 | 89.4 | 88.3 | 97 | 97.2 | 90.3 | 93.9
100 nM | 82.9 | 94.8 | > 100 | > 100 | 97.3 | 99.3 | 90.6
1000 nM | > 100 | 91.6 | 95.7 | > 100 | > 100 | 90.2 | 94.3
10000 nM | 56.7 | > 100 | 93.6 | 96.3 | 97 | 89.8 | 70
